We go through 1 substance from patent US20240207337A1, “MYCELIAL CULTURE OF Irpex lacteus AND COMPOSITION COMPRISING SAME AS ACTIVE INGREDIENT FOR PREVENTION AND TREATMENT OF DIABETES MEILLITUS” (LONGRUNN MEDICAL FOOD PTE. LTD., priority 2021, published 2024).

Common to all, as to format: in vivo
Series [1] concerns db/db mice. Kind of series: Blood glucose level after repeated oral administration for three weeks in db/db mice. The following applies: G5: Diabex 400 mg/kg/day oral. Here is the method:
In this experiment, the test material lyophilizate of a mycelial culture of Irpex lacteus KACC 83046BP was orally administered to the db/db mice, which are an animal model of diabetes, for three weeks and examined for hypoglycemic effect. This test was conducted in the Local Food Institute of Gimcheon University.
For use in tests, sterile water for injection (excipient) was used as a negative control while Diabex tablet ([…], 500 mg) commercially available from Dai Han Pharm. Co., Ltd. (Kyeonggi-do) was used as a positive control. A test substance was divided into three groups: high-, medium-, and low-dose groups, which were prepared in suspension by adding the same amount of the test substance to different amounts of the sterile water for injection.
Blood glucose levels were measured once a week for three weeks during the experiment. In order to objectively measure blood glucose levels, all experimental animals were blocked from eating feed 6 hours before blood glucose measurement on the day of blood glucose measurement. Blood glucose levels were measured using a portable blood glucose meter (Accu-Check Performa/USA).

For series [2], the system named is db/db mice. Kind of series: Blood insulin and c-peptide measurement (ELISA) in db/db mice. The following applies: three weeks. An excerpt: C-peptide is a substance that is secreted when proinsulin, a precursor of insulin, is degraded and released. The peptide, although lacking bioactivity, accounts for the secretion state of insulin. In addition, with a long half-life, C-peptide is used as an index to evaluate insulin secretion. The sera stored in separation were quantitatively assayed for insulin and c-peptide, using an ELISA kit (Shibayagi, AKRIN-011T and AKRCP-031).

In series [3] the test system is db/db mice. Description: Hemato-biochemical examination in db/db mice. The following applies: G5: Diabex 400 mg/kg/day oral, three weeks. Here is the method: Of the blood collected for clinical pathology on the day of the end of the experiment, about 200 μL was used for analyzing glycated hemoglobin (HbA1c) while the remainder was left for 30 min or longer at room temperature in a vacutainer tube containing a clot activator and then centrifuged at 3000 rpm for 10 min. The serum obtained by centrifugation was transferred to a new tube and subjected to hemato-biochemical examination.
Using a hemato-biochemical analyzer, whole blood and sera which had been stored separately were subjected to hemato-biological examination for total cholesterol (TCHO), aspartate aminotransferase (AST), high-density lipoprotein (HDL), low-density lipoprotein (LDL), alanine aminotransferase (ALT), and glycated hemoglobin (HbA1c).

In series [4] the test system is db/db mice. Description: Histopathological examination of pancreas (H&E) in db/db mice. The settings on record: G5: Diabex 400 mg/kg/day oral, three weeks. Here is the method:
All the experimental animals were anesthetized by inhalation with CO2 and autopsied by laparotomy, and blood was collected from the posterior vena cava. After blood collection, the animals were killed by excision of the abdominal aorta and posterior vena cava and exsanguination. For histopathological examination, hematoxylin & eosin (H&E) staining was conducted to measure numbers and diameters of pancreatic islets and proportions of zymogen granules per unit area of exocrine pancreatic portions.

The subject of series [5] is db/db mice. Description: Oral glucose tolerance test (OGTT) in db/db mice. The following applies: G5: Diabex 400 mg/kg oral. Here is the method:
(1) The OGTT measures the body's ability to use glucose.
(2) After 6 days of acclimatization, OGTT test animals were fasted for 16 hours before OGTT (water provided).
(3) Blood glucose was measured 30 minutes before administration of the test substance and once again 30 minutes later, that is, just before glucose administration.
(4) At 30, 60, 90, 120, and 240 min after administration of oral glucose at a dose of 2 g/10 mL/kg, blood was taken from tail veins and measured for glucose levels using a blood glucose meter (Accu-Check Performa).

Consider metformin phosphate [Diabex], for which the Blood glucose level with db/db mice [1] (Day 1 (first day of administration)) is listed as 365 ± 24 mg/dL; in the series with db/db mice [1] (Week 1), 371 ± 12 mg/dL; in the series on db/db mice [1] (Week 2), 452 ± 13 mg/dL; with db/db mice [1] (Week 3), 436 ± 11 mg/dL. The “Blood insulin compared to the negative control (G1)” value in the series with db/db mice [2] (G5 (Diabex 400 mg/kg) oral) is given as “significant decrease”. Moreover, in the series on db/db mice [2] (G5: Diabex 400 mg/kg/day oral), the “Blood C-peptide level” value was 459.7 ± 82.3 pg/mL. The substance further returned a Blood insulin level with db/db mice [2] (G5: Diabex 400 mg/kg/day oral) of 1.96 ± 0.39 ng/mL. In the series with db/db mice [3], this substance displayed an ALT of 72.1 ± 4.5 U/L. Besides, the AST with db/db mice [3] worked out at 116.5 ± 4.6 U/L. The HDL in the series with db/db mice [3] came to 88.2 ± 4.2 mg/dL. The HbA1c in the series with db/db mice [3] is recorded as 6.8 ± 0.2 %. In the series on db/db mice [3], this substance came in with an LDL of 25.9 ± 2.7 mg/dL. The substance further showed a TCHO in the series on db/db mice [3] of 116.7 ± 3.2 mg/dL. In the series on db/db mice [4], the Diameter of islet worked out at 126.25 ± 5.3 μm. The “No. of pancreatic Islets” value in the series with db/db mice [4] is 6.25 ± 0.1 islets/cm^2. For the same substance, in the series on db/db mice [4], the Zymogen granules is given as 41.39 ± 0.7 %/mm^2 of exocrine pancreas. Also, the “Blood glucose level (OGTT)” value in the series with db/db mice [5] (0 min (just before glucose 2 g/kg)) is reported as 385 ± 33 mg/dL; in the series on db/db mice [5] (30 min after glucose), 421 ± 29 mg/dL; with db/db mice [5] (60 min after glucose), 343 ± 12 mg/dL; in the series on db/db mice [5] (90 min after glucose), 246 ± 26 mg/dL; with db/db mice [5] (120 min after glucose) it was 208 ± 11 mg/dL; in the series with db/db mice [5] (240 min after glucose), 174 ± 22 mg/dL. The “Blood glucose level (OGTT)” value in the series on db/db mice [5] (−30 min (before administration)) came to 265 ± 11 mg/dL.
